Reference: patent US6436945B2, “Substituted O6-benzyl-8-aza-guanines” (The United States of America as represented by the of …, priority 1994, dated 2002)

Key:
[1] = Behaviour in solution at pH 13 (noted with UV spectra); type: physicochemical
[2] = target: T1, O^6-alkylguanine-DNA alkyltransferase (AGT) (Homo sapiens, UniProt P16455); assay: AGT inactivation in intact HT29 cells
T1 sequence (P16455 1-207): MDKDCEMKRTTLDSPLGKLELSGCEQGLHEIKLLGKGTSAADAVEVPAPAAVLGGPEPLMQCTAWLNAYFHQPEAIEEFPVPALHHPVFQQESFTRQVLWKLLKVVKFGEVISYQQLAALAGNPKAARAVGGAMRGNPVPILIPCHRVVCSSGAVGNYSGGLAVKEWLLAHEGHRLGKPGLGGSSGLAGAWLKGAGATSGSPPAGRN
Method: (§1) The data represent the dose of compound required to produce 50% inactivation in cell-free extracts upon incubation for 30 min or in cells upon incubation for 4 hr.

[3] = target: T1, O^6-alkylguanine-DNA alkyltransferase (AGT); assay: AGT inactivation in HT29 cell-free extract
Method: as §1

purified human AGT = target: T2, purified human AGT (Homo sapiens, UniProt P16455); assay: Inactivation of purified human AGT; type: biochemical; settings: Table 2 footnotes; read-out: ED50 with purified human AGT
T2 sequence (P16455 1-207): T1 sequence (P16455 1-207)

For `CC(C)(C)C(=O)OCn1nnc2c(OCc3ccccc3)nc(N)nc21` [Compound 8b, 8-Aza-O^6-benzyl-9-(pivaloyloxymethyl)guanine], the “stability at pH 13” value [1] was “decomposes to 8-aza-O^6-benzylguanine”, the EC50 [2] was 0.23 µM and the melting point was 119 to 120 °C. For the same molecule, the EC50 [3] was 0.28 µM and the EC50 (purified human AGT) was 4 µM.

For `CC(C)(C)C(=O)OCn1cnc2nc(N)nc(OCc3ccccc3)c21` [Compound 12, O^6-benzyl-7-(pivaloyloxymethyl)guanine], the “stability at pH 13” value [1] was “decomposes to O^6-benzylguanine”, the EC50 [2] was 0.3 µM and the EC50 [3] was 9 µM. The EC50 (purified human AGT) was over 100 µM.

For `CC(C)(C)C(=O)OCn1nnc2nc(N)nc(OCc3ccccc3)c21` [Compound 9, 8-Aza-O^6-benzyl-7-(pivaloyloxymethyl)guanine], the “stability at pH 13” value [1] was “decomposes to 8-aza-O^6-benzylguanine”, the EC50 [2] was 0.16 µM and the melting point was 153 to 154 °C. The EC50 [3] was 0.11 µM and the EC50 (purified human AGT) was 2 µM.

With `CC(C)(C)C(=O)OCn1c(Br)nc2c(OCc3ccccc3)nc(N)nc21` [Compound 10b, O^6-Benzyl-8-bromo-9-(pivaloyloxymethyl)guanine] the “stability at pH 13” value [1] was “decomposes to O^6-benzyl-8-bromoguanine”, the EC50 [2] was 0.05 µM and the melting point was 217 to 218 °C. For the same molecule, the EC50 [3] was 0.08 µM and the EC50 (purified human AGT) was over 100 µM.
